Assay results published in US20100144815A1, “AMINO ACID COMPOSITION” (priority 2007, published 2010).

Experiments:
[1] = test system: Mouse fibroblasts (3T3-L1 cells); assay: Fatty acid releasing activity in mouse fibroblasts differentiated to adipocytes (NEFA-C Test Wako); format: cell-based; details: 1 μM in PBS, 4 hours; triplicate; control 0.024
Experimental: The induction of differentiation from mouse fibroblasts (3T3-L1 cells) to adipocytes was carried out in 12-well multiwell plates according to a known procedure. After treatment over about 2 weeks to induce differentiation to adipocytes, it was confirmed under a microscope that large differences in the differentiation induction activity were not present among these wells.
[…] After 4 hours, 5 μL of the PBS solution was picked up and was transferred to a 96-well multiwell plate. The amount of free-fatty acid was measured on the 96-well multiwell plate by using a NEFA-C Test Wako which is for measuring free-fatty acid.
The principle of measuring the amount of free-fatty acid is as follows. AcylCoA is produced by the reaction between acylCoA synthetase (ACS) and free-fatty acid. The reaction of acylCoA oxidase (ACOD) with the produced acylCoA generates hydrogen peroxide, and in the presence of this hydrogen peroxide, oxidative condensation between 3-methyl-N-ethyl-N-(β-hydroxyethyl)aniline (MEHA) and 4-aminoantipyrine was done, and thereby a blue-purple dye was produced. The amount of free fatty acid can be detected by measurement Of the optimal absorbance of this blue-purple dye. A large quantity of free fatty acid indicates a high level of lipolysis and an inhibition of intracellular fat accumulation […].

[2] = test system: athletes of sports which need endurance; assay: Endurance exercise test in athletes after beverage ingestion (stationary bicycle, crossover); format: in vivo, human
Experimental: The object of these experiments was 12 athletes (6 males, 6 females) of sports which need endurance (for example, cycling, rowing, or triathlon). The following (a)-(c) were evaluated for a beverage containing the amino acid composition of the present invention, water, and flavor (Example 1), a beverage containing glucose, water, and flavor (Comparative Example 1), and a beverage containing water and flavor (Comparative Example 2): (a) work done during full exercise, (b) total amount of fat oxidation during steady-state submaximal exercise, (c) changes of plasma glucagon concentration and free-fatty acid, and (d) change of blood lactate concentration.
The test used a 3-way double-blind crossover design. The 12 athletes were divided into 6 groups. Each of the groups, which contains 2 athletes, is used in each of the following six kinds of experimental sequential procedures with 3 kinds of beverages (i.e. Example 1 and Comparative Examples 1 and 2).
In FIG. 1, the time, when the fasting was finished, was designated as the base time (i.e. time 0). A prescribed diet and limited exercise had been done during the period from 24 hours before the base time to 12 hours before the base time; fasting was carried out in the period of from 12 hours before the base time to time 0; and the beverage (i.e. Example 1, Comparative Example 1, or Comparative Example 2) was orally ingested at 30 minutes after the finish of the fasting. After the lapse of 30 minutes after ingesting the beverage (designated as the “sample” in FIG. 1), exercise with a stationary training bicycle was performed for 85 minutes at a work load equivalent to 65% of the maximum oxygen intake (referred to below as steady-state submaximal exercise), and, after finishing steady-state submaximal exercise, as much work as possible was completed in 5 minutes on the stationary training bicycle.

[3] = test system: Mouse fibroblasts (3T3-L1 cells); assay: Inhibition of differentiation of mouse fibroblasts into adipocytes, measured as GPDH activity; format: cell-based; details: 10 μM in D-MEM medium; control without addition 370 units
Experimental: Experiments were carried out for investigating whether the amino acid composition of the present invention is active in inhibiting the intracellular accumulation of fat granules (specifically, the ability to inhibit the induction of the differentiation of preadipocytes).
Mouse fibroblasts (3T3-LI cells) efficiently differentiate into adipocytes in the presence of dexamethasone (DEX), isobutylmethylxanthine (IBMX), and insulin. It is known that the addition of “Wortmannin”, which is a substance that inhibits the induction of differentiation to adipocytes, inhibits differentiation into adipocytes. This inhibitory effect can be evaluated by measuring the GPDH activity.
The GPDH activity is quantitated in terms of units where 1 unit equals 1 nmol of NADH which is oxidized for one minute in 1 mL of the culture medium for inducing the differentiation of mouse fibroblasts (3T3-LI cells) into adipocytes. A smaller value of units indicates a greater inhibitory effect on differentiation and a greater inhibition of intracellular fat granule accumulation.
The culture medium was obtained by dissolving the same amino acid composition of the present invention as that in Example 1 into D-MEM medium (i.e. serum-containing liquid medium) to provide a concentration of 1 mass %. Almost of the all amount of the amino acid composition was dissolved well by ultrasonication. […]

CC(C)NCC(O)c1ccc(O)c(O)c1 (racemic) [Comparative Example 9, dl-isoproterenol]
average value of absorbance (amount of free-fatty acid) [1]: 0.041

O=C[C@H](O)[C@@H](O)[C@H](O)[C@H](O)CO [Comparative Example 1, glucose]
amount of work during the 5 minutes of full exercise (average value of the 12 participants) ([2]; 380 g beverage (6 g active) orally 30 min before 85 min steady-state submaximal exercise, then 5 min full exercise): 83.3 kJ
total amount of fat oxidation during 85-minute steady-state submaximal exercise ([2]; beverage orally 30 min before exercise at 65% of maximum oxygen intake): 49.3 g
concentration of lactic acid after 5-minute full exercise ([2]; blood, after full exercise): 8.8 mmol/L
concentration of lactic acid immediately before full exercise (after the sustained exercise period) ([2]; blood, before full exercise): 1.5 mmol/L

COC[C@H]1OC(=O)c2coc3c2[C@@]1(C)C1=C(C3=O)[C@@H]2CCC(=O)[C@@]2(C)C[C@H]1OC(C)=O [Comparative Example 4, Wortmannin]
GPDH activity [3]: 47 units
